Structures are written as SMILES. Converted amounts (≈) assume the structure as drawn. “And” between values parts separate entries of the source, which are not always exact repeats. Equal values may be shown once. Read-outs that look alike come from different tables or passages of the source.

Data on one molecule can be found in patent US12239645B2, “Targeted dosing for the treatment of complement mediated disorders” (Achillion Pharmaceuticals, Inc., priority 2018, dated 2025).

Common to all, as to assay type: in vivo, human
Data set [1] relates to complement alternative pathway (AP) activity. As to the kind of experiment: SAD study: ex vivo serum AP hemolysis assay and PK-PD analysis. The note with it: for time approximately 90% or greater inhibition maintained after dosing: AP hemolysis. On the procedure:
For human serum preparation, venous blood was collected by standard clinical procedures into a Gold Top, SST vacutainer (BD Vacutainer). After clotting at room temperature for 30 minutes or longer, the tube was centrifuged at ˜1,300×g at 4° C. for 15 minutes to separate the serum from the clot. Serum was then aliquotted into pre-chilled cryovials (50-200 μl/vial) for storage at ˜80° C. Each vial was thawed only once and used for each complement related assay, the remaining sample was discarded without further usage. For preparation of plasma, venous blood was collected into a Lavender Top, K2EDTA vacutainer and gently inverted several times to allow for complete mixing of the blood sample with the anticoagulant. The tube was placed in an ice-bath for 30 minutes and then centrifuged for 15 minutes at ˜1300×g at 4° C. to separate the plasma from the blood cells. Plasma was divided into aliquots in pre-chilled cryogenic storage tubes and stored at a ˜80° C. freezer within one hour of having collected the blood sample. For delivery, tubes containing either serum or plasma were shipped in the presence of dry ice without additional freeze-thaw cycle.
Ex vivo serum AP hemolysis assays were conducted in 96-well microtiter plates divided into two parts, one for hemolysis and the other for serum background color subtraction. Briefly, a suspension of rabbit red blood cells (RBCs) was centrifuged at 800×g at 4° C. for 3 minutes and the supernatant was removed to get rid of the RBC debris. The RBC cell pellet was re-suspended gently with pre-chilled gelatin veronal buffer (GVB0) containing 10 mM MgEGTA to a density of 5×10^8 cells/mL. Other controls including buffer, spontaneous rabbit RBC lysis, 100% RBC lysis (in water), and normal serum control were set up alongside the test samples as well. Serum was placed in a 37° C. water-bath until mostly thawed and immediately transferred to ice bath. 20% serum was prepared with GVB0-MgEGTA buffer and kept at ice bath before testing. Reactions were carried out in a 96 well plate by mixing 50 μl of 20% serum with equal volume of GVB0-MgEGTA buffer and then quickly adding 20 μl of RBC suspension. The plate was shaken on a microtiter plate shaker for 5 seconds and then incubated at 37° C. for 30 minutes. Halfway during the incubation period, the plate was shaken for another 5 seconds as described above. At the end of the incubation, the plate was centrifuged at 800×g at 4° C. for 3 minutes to pellet the un-lysed rabbit RBCs. 80 μl of supernatant was removed carefully from all wells and transferred to a clear flat-bottom microtiter plate for the measurement of optical absorbance at 405 nm (A405) in a Molecular Devices Spectramax Plus plate reader. AP hemolysis in each well was calculated relative to the activity of the NHS reference sample formulas as follows: Hemolysis (%)=((Hm−Bk)−(Sp−Bf))/((NH−BkNH)−(Sp−Bf))×100%
where Hm=A405 in the hemolysis well, Bk=A405 in the corresponding background well, Sp=mean A405 in the spontaneous hemolysis wells, Bf=mean A405 in the buffer alone wells, NH=mean A405 in the reference NHS wells, and BkNH=mean A405 in the corresponding background wells.
The PK-PD relationship was evaluated using time-matched plasma Compound 1 concentrations and serum AP inhibition values by non-linear regression with GraphPad Prism (La Jolla, CA) using the following two models: • 1. […] Pharmacodynamic and Pharmacokinetic Results AP Activity Measured with AP Hemolysis […]

Data set [2] is described as follows: MAD study, two additional single-dose cohorts: pharmacokinetics. The settings on record: for AUC(0-t) / Cmax / Tmax / AUC(0-inf): human, plasma, oral; for AUC(0-inf): read-out: AUC0-inf, Mean. On the procedure: A multiple ascending dose (MAD) study of Compound 1 with two additional single-dose cohorts was also completed. […] Secondary objectives included evaluation of the pharmacokinetic (PK) profile and the relationship between Compound 1 PK and pharmacodynamic (PD) characteristics, that is, the inhibition of complement alternative pathway (AP) activity (PK/PD). In the MAD study, multiple-dose pharmacokinetics and pharmacodynamics of Compound 1 were evaluated in four dose groups administered Compound 1 (40, 80, 120 and 200 mg BID) in the fasted state for 14-days (Table 3). Eight subjects received active drug in each group; eight subjects received placebo in the first dose group (40 mg) and two subjects received placebo in each of the other three dose groups. Two additional cohorts were administered Compound 1 at single doses of 240 mg (fasted subjects) and 120 mg (fed subjects) (Table 3). The two single-dose cohorts each comprised six subjects receiving active drug and two subjects receiving placebo. Plasma and serum samples for PK and PD assessment were collected on selected days prior to dosing (at local troughs), and on days 1, 7, and 14 at 0.5-hour to 2-hour intervals for more detailed assessment.

Data set [3] has as its system fD, C3, C4, classical pathway (CP) function. Description: Other complement assays (fD, C3, C4 serum concentration, serum total CP function). On the procedure: […] were dosed and evaluated in 4 dose groups with ten subjects receiving placebo (Table 1). The first dose group had 6 active and 6 placebo subjects; subsequent groups had 6 active and 2 placebo subjects each. Each group was followed for 28 days after dosing. All subjects were monitored for safety through the last scheduled visit at Day 28. Blood and urine samples were collected at predefined time points from Days 1 to 4 to determine plasma and urine concentrations of Compound 1 and from Days 1 to 7 to determine complement related activities. Results of serum AP activity measured by AP Wieslab assay as well as plasma Bb, factor D level and several other PD biomarkers were determined.
Serum AP hemolysis activity was assessed in samples collected from all cohorts at predefined time points from Day 1 (pre-dose) through Day 21. Intense sampling was obtained on Day 1 (0 h to 12 h), Day 7 (0 h to 12 h), and Day 14 (0 h to 16 h); all other serum samples were collected at 0 h (morning PK troughs) on the indicated days. […] Serum complement AP activity measured ex vivo by the AP Wieslab assay, serum total complement classical pathway (CP) activity, plasma complement Bb concentrations, and serum FD, C3, and C4 concentrations were also measured at predefined time points.

Where [4] appears, read: 120 mg single dose, fed moderate fat meal.
[5] abbreviates: 120 mg single dose, moderate-fat meal vs fasted (SAD).

Regarding `CC(=O)c1nn(CC(=O)N2[C@H](C(=O)Nc3nc(Br)ccc3C)C[C@@]3(C)C[C@@H]23)c2ccc(-c3cnc(C)nc3)cc12` [Compound 1, (1R,3S,5R)-2-(2-(3-acetyl-5-(2-methylpyrimidin-5-yl)-1H-indazol-1-yl)acetyl)-N-(6-bromo-3-methylpyridin-2-yl)-5-methyl-2-azabicyclo[3.1.0]hexane-3-carboxamide], the “time approximately 90% or greater inhibition maintained after dosing” value in data set [1] (Group 1, 40 mg single dose) was “at least 4 hours”; in data set [1] (Groups 2 and 3, 80 and 120 mg single dose), “at least 8 hours”. Further, the EC50 in data set [1] (Homo sapiens, simple Emax model, all SAD dose cohorts, read-out: EC50 (plasma concentration vs serum AP inhibition)) came out at 0.0111 µg/mL (≈ 0.0184 µM). Also, the “EC50 (plasma concentration vs serum AP inhibition)” value in data set [1] (simple Emax model, all SAD dose cohorts) is ~10 ng/mL and 11 ng/mL. In data set [1] (single dose 40, 80 or 120 mg, all groups), the “inhibition of AP activity after dosing” value was “complete inhibition”. Moreover, the “t½term, Mean” value in data set [2] (setting [4]) turned out to be 9.39 h; in data set [2] (240 mg single dose, fasted), 9.33 h. The “mean AUC lower in the fed state vs fasted” value in data set [2] (setting [5]) is on record as 00.8%. Further, the “mean Cmax lower in the fed state vs fasted” value in data set [2] (setting [5]) worked out at 2.2%. Besides, the AUC(0-t) in data set [2] (120 mg, 120 mg single dose, fed moderate fat meal, read-out: AUC(0-12), Mean) was found to be 1250 ng·h/mL; in data set [2] (120 mg, 120 mg single dose, fed moderate fat meal, read-out: AUC(0-72), Mean) it was 1490 ng·h/mL; in data set [2] (240 mg, 240 mg single dose, fasted, read-out: AUC(0-12), Mean), 2770 ng·h/mL; in data set [2] (240 mg, 240 mg single dose, fasted, read-out: AUC(0-72), Mean), 3510 ng·h/mL. Also, the Cmax (in general, the highest concentration seen after dosing) in data set [2] (setting [4]) turned out to be 309 ng/mL; in data set [2] (240 mg single dose, fasted) it was 594 ng/mL. For the same molecule, the Tmax (commonly the time at which the peak concentration occurs) in data set [2] (setting [4]) worked out at 2.83 h; in data set [2] (240 mg single dose, fasted), 2.67 h. Further, the AUC(0-inf) in data set [2] (setting [4]) was 1490 ng·h/mL; in data set [2] (240 mg single dose, fasted), 3520 ng·h/mL. Further, in data set [3] (MAD study single-dose cohorts (240 mg fasted, 120 mg fed)), the “change in serum CP activity and serum factor D, C3, C4 concentrations” value is given as “no significant changes”. In addition, in data set [3] (SAD, single dose up to 120 mg, vs baseline and placebo), the “change in fD, C3, C4 serum concentration and serum total CP function” value is listed as “no significant changes”.
